Reference: PMC10974294, “Addressing the ADME Challenges of Compound Loss in a PDMS-Based Gut-on-Chip Microphysiological System” (Pharmaceutics, 2024)
Counter-ions that a name gives are not always drawn.

How the values were obtained:
[1] = Compound loss (PDMS ad- and absorption) in cell-free organ-chips; assay type: in vitro ADME; settings: for Compound Loss Bottom Channel (%) / Compound Loss Top Channel (%): 10 µM per drug in cocktail, outlet vs inlet after one hour at 200 µL/h, mean of two experiments
Source text: S-1® Organ-Chips from Emulate Inc. (Boston, MA, USA) comprise 2 parallel channels (top and bottom) for cell culture, which are superimposed and separated via a porous membrane, all made of polydimethylsiloxane (PDMS). The 50 µm thick membrane contains pores of a diameter of 7 µm, which are spaced 40 µm apart from each other. In addition, 2 more channels, in which a vacuum can be applied to laterally stretch the cell culture channels, flank the cell culture channels horizontally. The top channel has a size of 1000 × 1000 µm (width × height), a culture area of 28 mm^2, and a volume of 28 µL. The bottom channel has a size of 1000 × 200 µm (width × height), a culture area of 24.5 mm^2, and a volume of 5.6 µL. Both channels share an area of 17.1 mm^2 of the porous membrane as a coculture area. To conduct experiments, each organ-chip is inserted into a cell culture container called Pod®, which connects 4 physically separated fluid reservoirs with the in- and outlets of the top and bottom channels. […] The Zoë module controls, as well as regulates, the vacuum and pressured gas flows generated by the Orb hub module, which also powers the Zoë module.
Compound loss experiments in cell-free organ-chips were performed with used chips after removal of the cells and washing-out of previously perfused compounds (Section 4). […] The compound concentrations in the outlets were measured via liquid chromatography-tandem mass spectrometry (LC-MS/MS, Section 2.8) after a period of one hour, with a flow rate of 200 µL/h (manufacturer’s instruction), and relatively compared to the inlet concentrations, and the difference was reported as the percent drug absorbed. The experiments were performed in duplicate.

Caco-2/HUVEC gut-on-chip [2] = experiment: Metabolite identification in Caco-2/HUVEC gut-on-chip; settings: for fraction of the total amount of all metabolites (peak areas): testosterone 10 µM perfused 2 h at 200 µL/h, top and bottom outlets
Method: The analysis was performed on an LC-MS system containing a Vanquish UPLC (ThermoFisher Scientific, San Jose, CA, USA) coupled to an Orbitrap FusionTribrid high-resolution mass spectrometer (ThermoFisher Scientific). The structural elucidation was based on exact mass measurements in combination with the interpretation of fragment spectra.

Caco-2/HUVEC gut-on-chip [3] = experiment: Bidirectional permeability assay in Caco-2/HUVEC gut-on-chip; assay type: cell-based, human; settings: coperfusion with elacridar 10 µM in Caco-2/HUVEC gut-on-chip
Method: (§1) The Caco-2/HUVEC gut-on-chip was prepared according to the Caco-2/HUVEC gut-on-chip protocol provided by Emulate Inc. Briefly, on day −1 of the protocol, the PDMS membrane was activated using Emulate reagent (ER) 1 dissolved in ER 2 solution at a concentration of 0.5 mg/mL. The top channels were filled with 50 µL and the bottom channels with 20 µL of ER 1 solution and then treated under UV light for 10 min. Next, activated ER 1 solution was aspirated from both channels and exchanged with fresh ER 1 solution after which the chips were again exposed to UV light for 5 min. The two channels were then subsequently washed with ER 2 solution followed by ice-cold PBS. After the PBS was fully aspirated from both channels, the chips were coated with 100 µg/mL Matrigel and 30 µg/mL collagen type I in PBS overnight at 37 °C. On day 0 of the protocol, both channels were washed with HUVEC culture medium before 0.14 × 10^6 viable HUVECs in 20 µL HUVEC culture medium were seeded in the bottom channel. The chips were inverted and HUVECs were allowed to adhere for at least 2 h to the porous PDMS membrane. Afterwards, the chips were inverted again, and the top channel was filled with enough Caco-2 culture medium to also cover the in- and outlets (~100 µL). Caco-2 cells were seeded in the top channel (0.15 × 10^6 viable cells in 50 µL Caco-2 culture medium). […]

P-gp [4] = target: T1, P-gp (Homo sapiens, UniProt P08183); experiment: Inhibition of P-gp mediated Quinidine efflux in MDCK-MDR1 cells; assay type: cell-based; settings: probe quinidine, Supplementary Table S2
T1 construct: expressed in transfected cells; host or cells: MDCK-MDR1 cells

P-gp [5] = experiment: in vitro; settings: human, Caco-2
Method: Either the top (A–B direction) or bottom (B–A direction) channel served as the donor compartments and the respective other channels (A–B: bottom; B–A: top) as receiver compartments. […] Following an Emulate protocol, dosing of a cocktail of both compounds at 10 µM in transporter buffer was initiated via a drug introduction step (flow rate of 600 µL/h for 10 min), after which the outlets were aspirated. The outlet concentrations were determined after one hour (flow rate: 200 µL/h). […] The samples from the receiver outlets were used for the bioanalysis without dilution. The samples from the donor inlets, as well as outlets, were diluted 1:50 (v/v) in transport buffer. All samples were spiked with the internal standard and used for the LC-MS/MS analysis, as described in Section 2.8.

P-gp [6] = experiment: Bidirectional permeability assay in Caco-2/HUVEC gut-on-chip; assay type: cell-based, human; settings: human, pH 7.4; Caco-2/HUVEC gut-on-chip, day 10; 10 µM; no inhibitor; read-out: efflux ratio, control
Method: as §1

Caco-2/HUVEC gut-on-chip [7] = experiment: Time-resolved testosterone loss, clearance, permeability and mass balance in Caco-2/HUVEC gut-on-chip
Method: The Caco-2/HUVEC gut-on-chip was prepared according to the Caco-2/HUVEC gut-on-chip protocol provided by Emulate Inc. Briefly, on day −1 of the protocol, the PDMS membrane was activated using Emulate reagent (ER) 1 dissolved in ER 2 solution at a concentration of 0.5 mg/mL. The top channels were filled with 50 µL and the bottom channels with 20 µL of ER 1 solution and then treated under UV light for 10 min. Next, activated ER 1 solution was aspirated from both channels and exchanged with fresh ER 1 solution after which the chips were again exposed to UV light for 5 min. The two channels were then subsequently washed with ER 2 solution followed by ice-cold PBS. After the PBS was fully aspirated from both channels, the chips were coated with 100 µg/mL Matrigel and 30 µg/mL collagen type I in PBS overnight at 37 °C. On day 0 of the protocol, both channels were washed with HUVEC culture medium before 0.14 × 10^6 viable HUVECs in 20 µL HUVEC culture medium were seeded in the bottom channel. The chips were inverted and HUVECs were allowed to adhere for at least 2 h to the porous PDMS membrane. Afterwards, the chips were inverted again, and the top channel was filled with enough Caco-2 culture medium to also cover the in- and outlets (~100 µL). Caco-2 cells were seeded in the top channel (0.15 × 10^6 viable cells in 50 µL Caco-2 culture medium). Caco-2 cells were also allowed to adhere for 2 h and then the channels were filled with the respective media and incubated overnight at 37 °C. On day 1, the inlet reservoirs of the Pods were filled with 3 mL of the respective degassed media, and the chips were connected to the Pods. The Pods were then placed into the Zoë module, and a flow at a rate of 30 µL/h (manufacturer’s instruction) was applied for both channels. From day 3 onwards, the HUVECs were cultured in HUVEC culture medium but with 0.5% FCS. On day 3, 10% lateral, peristalsis-like stretch was activated with a frequency of 0.15 Hz (manufacturer’s instruction). On day 8, the FCS concentration in the Caco-2 culture medium was reduced from 20% to 10%. Medium reservoirs were replenished with fresh medium 2–3 times per week.
The cell-free organ-chips were previously utilized in experiments with cells and were prepared in the same way as described for the compound loss studies above. The Caco-2/HUVEC gut-on-chip was cultivated under the conditions described for standard cell culture until day 13. […] An introduction step with a high flow rate of 600 µL/h is recommended by the manufacturer to “saturate” the ad- and absorptions of compounds by the PDMS material. […] The samples from the bottom outlet were used directly for bioanalytical quantification. […]
A quantitative bioanalysis was performed with a fit-for-purpose assay using protein precipitation followed by LC-MS/MS. […]

[8] = Time-resolved testosterone loss and chip-specific clearance in cell-free organ-chips
Method: The cell-free organ-chips were previously utilized in experiments with cells and were prepared in the same way as described for the compound loss studies above. The Caco-2/HUVEC gut-on-chip was cultivated under the conditions described for standard cell culture until day 13. […] An introduction step with a high flow rate of 600 µL/h is recommended by the manufacturer to “saturate” the ad- and absorptions of compounds by the PDMS material. The necessity of this step will be discussed in Section 3 and Section 4. After the introduction step, both outlets were aspirated. […] During the sampling, the flow was stopped for a few seconds, a Pod®, which included a chip, was removed from the Zoë, a single chip removed from the Pod®, and samples were taken. The samples from the bottom outlet were used directly for bioanalytical quantification. The samples from the top inlet and top outlet were sampled from the respective reservoirs and diluted 1:50 (v/v) in transport buffer. The chips were subsequently dismantled from the Pods, and samples from the top channel and bottom channel were taken with a pipette via the outlets (Figure 1A). The samples from the top channel were diluted 1:50 (v/v) and the samples from the bottom channel 1:2 (v/v) in transport buffer.
The outlet reservoirs contained, therefore, perfusates from time zero to time point t. […] A period of 60 min was chosen because it was recommended by the manufacturer for diverse applications. […] For time points before 60 min, Ct,last was identical to Ct,cum by definition. Vt is the total volume of perfusate collected from time zero to t. Vt was calculated with the following equation:(4) Vt=t÷60×Q
The time profiles of Ct,last in the cell-free organ-chips and in the Caco-2/HUVEC gut-on-chip are shown in Figure 6A,B. Using Ct,last, the compound loss can be calculated in each putative collecting period of 60 min with the following equation:(5) Losst=Cinlet−Ct, last, top−Ct, last, bottom×Q

[9] = cell-free organ-chips, testosterone 10 µM, 200 µL/h

T1 sequence (P08183 whole entry): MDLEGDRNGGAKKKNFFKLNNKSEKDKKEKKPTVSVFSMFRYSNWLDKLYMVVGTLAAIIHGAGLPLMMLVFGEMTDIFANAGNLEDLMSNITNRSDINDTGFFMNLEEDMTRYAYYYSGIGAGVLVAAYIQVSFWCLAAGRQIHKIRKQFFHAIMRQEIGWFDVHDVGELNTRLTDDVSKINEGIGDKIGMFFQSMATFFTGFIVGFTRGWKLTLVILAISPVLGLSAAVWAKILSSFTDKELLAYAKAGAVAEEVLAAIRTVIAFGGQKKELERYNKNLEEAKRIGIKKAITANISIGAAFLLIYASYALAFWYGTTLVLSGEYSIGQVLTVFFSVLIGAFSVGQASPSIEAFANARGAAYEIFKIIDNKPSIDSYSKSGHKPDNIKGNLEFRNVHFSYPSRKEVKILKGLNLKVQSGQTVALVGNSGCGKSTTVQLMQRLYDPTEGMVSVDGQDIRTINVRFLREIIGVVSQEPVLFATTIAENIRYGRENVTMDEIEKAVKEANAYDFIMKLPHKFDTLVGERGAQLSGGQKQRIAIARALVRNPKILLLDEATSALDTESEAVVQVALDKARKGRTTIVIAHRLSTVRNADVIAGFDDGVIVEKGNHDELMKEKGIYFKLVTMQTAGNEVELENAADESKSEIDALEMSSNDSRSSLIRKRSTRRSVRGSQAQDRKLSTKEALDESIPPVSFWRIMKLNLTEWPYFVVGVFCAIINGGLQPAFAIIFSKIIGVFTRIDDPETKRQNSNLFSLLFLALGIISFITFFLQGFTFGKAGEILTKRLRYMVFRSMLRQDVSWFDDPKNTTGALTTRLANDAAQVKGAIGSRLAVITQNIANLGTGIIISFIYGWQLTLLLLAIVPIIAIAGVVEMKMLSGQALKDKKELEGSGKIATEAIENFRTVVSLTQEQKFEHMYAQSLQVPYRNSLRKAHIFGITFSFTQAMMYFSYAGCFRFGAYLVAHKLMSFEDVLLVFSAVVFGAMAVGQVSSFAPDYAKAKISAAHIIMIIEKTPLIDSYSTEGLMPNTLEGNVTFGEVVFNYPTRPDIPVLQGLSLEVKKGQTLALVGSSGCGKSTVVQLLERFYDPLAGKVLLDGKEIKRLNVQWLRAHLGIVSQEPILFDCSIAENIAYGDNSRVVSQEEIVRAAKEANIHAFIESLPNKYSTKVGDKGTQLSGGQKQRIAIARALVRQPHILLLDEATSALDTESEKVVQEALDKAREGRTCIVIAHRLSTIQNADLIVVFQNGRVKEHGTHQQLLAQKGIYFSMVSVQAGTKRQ

Row | Structure (SMILES) | Compound Loss Bottom Channel (%) ([1]; cell-free organ-chips) | Compound Loss Top Channel (%) ([1]; cell-free organ-chips) | other results
1 | O=C1[C@H](CC[C@H](O)c2ccc(F)cc2)[C@@H](c2ccc(O)cc2)N1c1ccc(F)cc1 [Ezetemibe] | 1.3 | 0.0 | 
2 | CC(C)c1c(C(=O)Nc2ccccc2)c(-c2ccccc2)c(-c2ccc(F)cc2)n1CC[C@@H](O)C[C@@H](O)CC(=O)O [Atorvastatin] | 7.4 | 18.9 | 
3 | C[C@]12CC[C@H]3[C@@H](CCC4=CC(=O)CC[C@@]43C)[C@@H]1CC[C@@H]2O[C@@H]1O[C@H](C(=O)O)[C@@H](O)[C@H](O)[C@H]1O [testosterone glucuronide] |  |  | fraction of the total amount of all metabolites (peak areas) (Caco-2/HUVEC gut-on-chip [2]): 3.2%
4 | CCOC(=O)C1=C(C)NC(C)=C(C(=O)OC)C1c1cccc(Cl)c1Cl (centres unmarked) [Felodipine] | 84.0 | 79.0 | 
5 | COc1cc2c(cc1OC)CN(CCc1ccc(NC(=O)c3cccc4c(=O)c5cccc(OC)c5[nH]c34)cc1)CC2 [Elacridar] |  |  | inhibition of the efflux of Apafant (Caco-2/HUVEC gut-on-chip [3]): completely; IC90 (P-gp [4]): ~1000 nM
6 | O=C1CC2(CCCC2)CC(=O)N1CCCCN1CCN(c2ncccn2)CC1 [Busiprone] | 30.5 | 33.1 | 
7 | Cc1c(-c2ccc(O)cc2)n(Cc2ccc(OCCN3CCCCCC3)cc2)c2ccc(O)cc12 [Bazedoxifene] | 26.0 | 56.4 | 
8 | CCN(CC)CC#CCOC(=O)C(O)(c1ccccc1)C1CCCCC1 (centres unmarked) [Oxybutynin] | 100.0 | 99.9 | PDMS compound loss during the one-hour period (in words) ([1]; cell-free organ-chips, 10 µM, one hour, 200 µL/h, top and bottom channels): complete
9 | C=C[C@H]1C[N@@]2CC[C@H]1C[C@@H]2[C@@H](O)c1ccnc2ccc(OC)cc12 [Quinidine] | 13.4 | 0.3 | 
10 | CC(C)(C)NC(=O)[C@@H]1C[C@@H]2CCCC[C@@H]2CN1C[C@@H](O)[C@H](Cc1ccccc1)NC(=O)[C@H](CC(N)=O)NC(=O)c1ccc2ccccc2n1 [Saquinavir] | 21.9 | 48.0 | 
11 | C[C@]12CC[C@H]3[C@@H](CCC4=CC(=O)CC[C@@]43C)[C@@H]1CC[C@@H]2OS(=O)(=O)O [testosterone sulfate] |  |  | fraction of the total amount of all metabolites (peak areas) (Caco-2/HUVEC gut-on-chip [2]): 0.3%
12 | CC(C)c1nc(N(C)S(C)(=O)=O)nc(-c2ccc(F)cc2)c1/C=C/[C@@H](O)C[C@@H](O)CC(=O)O [Rosuvastatin] | 7.9 | 12.6 | 
13 | Cc1ncc2n1-c1ccc(Cl)cc1C(c1ccccc1F)=NC2 [Midazolam] | 67.8 | 72.1 | 
14 | O[C@@H](COc1cccc2ncccc12)CN1CCN([C@@H]2c3ccccc3[C@@H]3[C@H](c4ccccc42)C3(F)F)CC1 [Zosuquidar] | 99.0 | 97.0 | compound loss after 1 h of perfusion ([1]; cell-free organ-chips, 10 µM): ~100%
15 | Cc1nnc2n1-c1sc(CCC(=O)N3CCOCC3)cc1C(c1ccccc1Cl)=NC2 [Apafant] | 8.0 | 15.0 | efflux ratio (P-gp [5]): 12.4 ± 7.8; efflux ratio at 1 h, 10 µM (P-gp [6]): 22.2
16 | C[C@]12CCC(=O)C=C1CC[C@@H]1[C@@H]2CC[C@]2(C)C(=O)CC[C@@H]12 [4-androstenedione] |  |  | compound loss in cell-free organ-chips (in words, relative to testosterone) ([1]; Supplementary Table S1): much higher compound loss; fraction of the total amount of all metabolites (peak areas) (Caco-2/HUVEC gut-on-chip [2]): 96.5%
17 | C[C@]12CC[C@H]3[C@@H](CCC4=CC(=O)CC[C@@]43C)[C@@H]1CC[C@@H]2O [Testosterone] | 35.1 | 37.6 | maximum testosterone concentration (top channel and outlet) (Caco-2/HUVEC gut-on-chip [7]; Caco-2/HUVEC gut-on-chip, 10 µM via top inlet, 200 µL/h, 135 min): < 2000 nM; time to steady state (Caco-2/HUVEC gut-on-chip [7]; Caco-2/HUVEC gut-on-chip, first sample time point): ≤ 15 min; clearance (total) in Caco-2/HUVEC gut-on-chip (Caco-2/HUVEC gut-on-chip [7]; collecting period 75-135 min, flow 200 µL/h): 172.1 µL/h; metabolic clearance in the gut-on-chip (Caco-2/HUVEC gut-on-chip [7]; total clearance minus chip-specific clearance, flow 200 µL/h): 160.4 µL/h; final testosterone concentration in the bottom channel and outlet ([8]; cell-free organ-chips, 10 µM via top inlet, 200 µL/h, 135 min): < 1000 nM; testosterone concentration in the top channel and outlet ([8]; cell-free organ-chips, 10 µM via top inlet, 200 µL/h, reached over 135 min): ~ 7000 nM; clearance (chip-specific / chip-intrinsic clearance) ([8]; cell-free organ-chips, collecting period 75-135 min, flow 200 µL/h): 11.7 µL/h; compound loss during the first 60 min of the collecting period [8, 9]: 719.1 pmol/h; compound loss in the last 60 min of the collecting period [8, 9]: 116.5 pmol/h; compound loss corresponding to chip-intrinsic clearance ([8]; corresponds to 11.7 µL/h at flow 200 µL/h): 6%; CYP3A4-related hydroxylation of testosterone (Caco-2/HUVEC gut-on-chip [2]; Caco-2/HUVEC gut-on-chip): did not detect
